Where a SMILES comes first, the peptide text is derived from it. Where no end group is shown, it is not given here. [ ]: non-standard residue; d: D form. Ahx = NCCCCCC(=O)O
What was measured:
[1] = test system: PDLSC cells; experiment: cell viability test (trypan blue count) on peptide-coated titanium discs; type: cell-based; conditions: for Total cell number (viable cells), Average: average of #1 and #2; for Total cell number (viable cells), Average / Total cell number (viable cells), #1 / Total cell number (viable cells), #2: PDLSC, 3 days culture, disc coated per Table 2 (peptides 100 μM, BMP-2 100 ng/ml); for Total cell number (viable cells), #1: replicate #1; for Total cell number (viable cells), #2: replicate #2; for cytotoxicity for cells: administered alone, 3 days of incubation, FIG. 5
Experimental: In order to evaluate whether or not a titanium binding peptide-linked osteogenic peptide (SEQ ID NO: 3 or SEQ ID NO: 4) and a titanium-binding peptide (SEQ ID NO: 1) are cytotoxic when these peptides are administered alone, a cell viability test was performed.
Specifically, one titanium disc was placed in each well of a 24-well low-attachment polystyrene plate and blocked with a blocking solution (0.1 M NaHCO3 (pH 8.6), 5 mg/ml BSA, 0.02% NaN3 (optional), filter sterilize) for at least 1 hour. Next, the blocking solution was discarded, and each well was washed three times or more with a washing solution (DPBS: Dulbeccos phosphate buffered saline), after which 50 μl of the solution shown in Table 2 below was dispensed and coated on the surface of each titanium disc. Each well was incubated at room temperature for 15 hours, and then washed three times or more with a washing solution (DPBS). Next, 3×10^4 PDLSC cells suspended in 50 μl of a medium (Minimum Essential Medium Eagle Alpha Modifications, Hyclone, USA) containing 10% FBS (Fetal Bovine Serum) and 1% antibiotic-antimycotic solution (Thermo Fisher Scientific, USA) were dispensed per titanium disc. […] Next, the cells were detached, stained with trypan blue, and counted with a hematocytometer to determine the number of viable cells.

[2] = maximum binding amount of titanium-binding peptide, avidin-biotin binding assay
Experimental: To examine the maximum binding amount of the titanium-binding peptide TBP (SEQ ID NO: 1) per unit area of the titanium disc surface, a binding assay using an avidin-biotin complex was performed. Specifically, one titanium disc was placed in each well of a 24-well polystyrene plate, and then blocked with a blocking buffer (0.1 M NaHCO3 (pH 8.6), 5 mg/ml BSA, 0.02% NaN3 (optional), filter sterilize) for at least one hour. Next, the blocking buffer was discarded, and each titanium disc was strongly washed six times or more with a washing buffer (TBS+0.1% [v/v] Tween-20), after which 50 μl of each of the titanium-binding peptide TBP (SEQ ID NO: 1) of Example 1 and the peptides TBP-C(SEQ ID NO: 2) and ZBP (SEQ ID NO: 5, Korean Patent Application No. 10-2015-0048441) of Comparative Examples 1 and 2, which were biotin-labeled, synthesized, separated and purified in Example 3-1, was dispensed to the surface of each titanium disc at a concentration ranging from 100 nM to 40 mM. Each titanium disc was incubated at room temperature for 15 hours, and then washed strongly with a washing buffer, and 50 μl of a 1:500 dilution of ExtrAvidin-peroxidase (Cat. #E2886, Sigma-Aldrich, USA) in a blocking buffer was dispensed to the surface of each titanium disc. Each titanium disc was incubated at room temperature for 1 hour, and then washed strongly with a washing buffer, after which 50 μl of a substrate solution (2,2′-AZINO-BIS, Cat. #A3219, Sigma-Aldrich, USA) was dispensed to the surface of each titanium disc and allowed to react at room temperature for 20 minutes so as to develop color. Each titanium disc was treated with 50 μl of 1% SDS solution to stop the reaction, and the absorbance at 405 nm was measured.

[3] = luminescent image analysis with enhanced chemiluminescence (ECL) solution; type: binding; conditions: ECL solution as substrate, FIG. 2
Experimental: Specifically, washing was performed at least three times with suitable washing solution to remove 2,2′-AZINO-BIS used as a substrate in the above procedure, and then analysis was performed with a luminescent image analyzer using enhanced chemiluminescence (ECL) solution.

[4] = binding assay using an avidin-biotin complex (binding affinity for titanium); conditions: biotin-labeled peptide 100 nM to 1 μM, 15 hours at room temperature, FIG. 1
Experimental: In order to examine the binding affinities of the peptides synthesized in Example 1 and Comparative Examples 1 and 2 for titanium, the peptides were labeled with biotin. Each of the peptides was biotinylated using EZ-Link Sulfo-NHS-Biotin (Pierce Biotechnology, USA) according to the manufacturer's instruction, and unbound byproducts were removed by ultrafiltration that is a membrane separation method based on a pressure difference. The molecular weights of the synthesized products were measured by mass spectrometry. The synthesized products were analyzed and purified by reverse phase liquid chromatography. For analysis, a C18 column having a diameter of 4.6 mm was used, and 0.1% TFA/H2O and 0.092% TFA/acetonitrile were flushed onto the column at a rate of 1 ml/min with a gradient of 0-60% for 30 minutes. The wavelength of the UV detector used was 220 nm. For purification, a column having a diameter of 2.2 cm was used, and a flow rate of 20 ml/min and the solvent and detection wavelength as described above were used. Only the biotin-labeled peptide fraction was collected, and concentrated using a rotary evaporator to remove the solvent, followed by freeze-drying.
The binding affinity of the titanium-binding peptide for titanium was measured by performing a binding assay using an avidin-biotin complex. Specifically, one titanium disc was placed in each well of a 24-well polystyrene plate, and then blocked with a blocking buffer (0.1 M NaHCO3 (pH 8.6), 5 mg/ml BSA, 0.02% NaN3 (optional), filter sterilize) for at least one hour. […] Each titanium disc was treated with 50 μl of 1% SDS solution to stop the reaction, and the absorbance at 405 nm was measured.

[5] = test system: periodontal ligament stem cells (PDLSCs); experiment: mineralization of periodontal ligament stem cells (Alizarin red S) on coated titanium discs; type: cell-based; conditions: day 18; significant p<0.05, not significant p>0.05
Experimental: Specifically, one titanium disc was placed in each well of a 24-well low-attachment polystyrene plate and blocked with a blocking solution (0.1 M NaHCO3 (pH 8.6), 5 mg/ml BSA, 0.02% NaN3 (optional), filter sterilize) for at least 1 hour. […] Each well was incubated at room temperature for 15 hours, and then washed three times or more with a washing solution (DPBS). Next, 3×10^4 PDLSC cells suspended in 50 μl of a medium (Minimum Essential Medium Eagle Alpha Modifications, Hyclone, USA) containing 10% FBS (Fetal Bovine Serum) and 1% antibiotic-antimycotic solution (Thermo Fisher Scientific, USA) were dispensed per titanium disc.

Compound | Total cell number (viable cells), Average [1] | Total cell number (viable cells), #1 [1] | Total cell number (viable cells), #2 [1] | cytotoxicity for cells [1] | concentration showing the maximum absorbance value ([2]; 100 nM to 40 mM tested, absorbance at 405 nm, FIGS. 3 and 4) [µM] | maximum amount of titanium-binding peptide bound to the surface of one titanium disc ([2]; back-calculation from molecular weight and dispensing amount, disc diameter 10 mm) [µg] | amount of titanium-binding peptide fixed per mm^2 of the titanium disc surface ([2]; disc diameter 10 mm) | binding to titanium disc detected by luminescent image analyzer [3] | binding to the titanium disc surface (absorbance at 405 nm) [4] | mineralization (absorbance at 570 nm), difference versus NT (negative control) group [5]
GLRSKSKKFRRPDIQYPDA-NH2 [Osteogenic peptide, reference compound] | 7.0 × 10^4 | 7.5 × 10^4 | 6.5 × 10^4 | – | – | – | – | – | – | –
SLNYTGHRPVVHGLRSKSKKFRRPDIQYPDA-NH2 [TBP-osteogenic peptide] | 7.8 × 10^4 | 7.5 × 10^4 | 8.0 × 10^4 | not cytotoxic | – | – | – | – | – | –
CC[C@H](C)[C@H](NC(=O)[C@H](CC(=O)O)NC(=O)[C@@H]1CCCN1C(=O)[C@H](CCCNC(=N)N)NC(=O)[C@H](CCCNC(=N)N)NC(=O)[C@H](Cc1ccccc1)NC(=O)[C@H](CCCCN)NC(=O)[C@H](CCCCN)NC(=O)[C@H](CO)NC(=O)[C@H](CCCCN)NC(=O)[C@H](CO)NC(=O)[C@H](CCCNC(=N)N)NC(=O)[C@H](CC(C)C)NC(=O)CNC(=O)CCCCCNC(=O)[C@H](Cc1c[nH]cn1)NC(=O)[C@@H](NC(=O)[C@@H](NC(=O)[C@@H]1CCCN1C(=O)[C@H](CCCNC(=N)N)NC(=O)[C@H](Cc1c[nH]cn1)NC(=O)CNC(=O)[C@@H](NC(=O)[C@H](Cc1ccc(O)cc1)NC(=O)[C@H](CC(N)=O)NC(=O)[C@H](CC(C)C)NC(=O)[C@@H](N)CO)[C@@H](C)O)C(C)C)C(C)C)C(=O)N[C@@H](CCC(N)=O)C(=O)N[C@@H](Cc1ccc(O)cc1)C(=O)N1CCC[C@H]1C(=O)N[C@@H](CC(=O)O)C(=O)N[C@@H](C)C(N)=O [TBP-Linker-osteogenic peptide] (H-SLNYTGHRPVVH[Ahx]GLRSKSKKFRRPDIQYPDA-NH2) | 6.8 × 10^4 | 6.0 × 10^4 | 7.5 × 10^4 | not cytotoxic | – | – | – | – | – | –
SLNYTGHRPVVH-NH2 [TBP] | 7.0 × 10^4 | 7.0 × 10^4 | 7.0 × 10^4 | not cytotoxic | 100 | 8.025 | about 0.1022 μg per mm^2 | binds to a titanium disc | binds to the titanium disc surface in a concentration-dependent manner | no statistically significant difference
VSPFGTKWSPFV (Zirconia Binding Peptide) [ZBP] | – | – | – | – | – | – | – | hardly bind to a titanium disc | do not bind to the titanium disc surface | –
SLNATGARAVVA [TBP-C] | – | – | – | – | – | – | – | hardly bind to a titanium disc | do not bind to the titanium disc surface | –

Reference: patent US10406264B2, “Peptide having titanium-binding ability” (NANO INTELLIGENT BIOMEDICAL ENGINEERING CORPORATION. CO. LTD, priority 2016, dated 2019)
